The source of these data is DBAASP.

Common to all, as to test: ≥ marks a high value that may be exact or a test limit, other limits are often not marked, values filed in µg/mL are converted to µM
Test [1] concerns Escherichia coli ATCC 25922.
Test [2] has as its system Pseudomonas aeruginosa CICC 21630.
Test [3] has as its system Pseudomonas aeruginosa PAO1.
The subject of test [4] is Pseudomonas aeruginosa CICC 21625.
Test [5] deals with Pseudomonas aeruginosa ATCC 27853.
For test [6], the system named is Salmonella enterica subsp. enterica serovar Typhimurium ATCC 14028.
Test [7] deals with Klebsiella pneumoniae.
In test [8] the test system is Escherichia coli K99.
The test system of test [9] is Salmonella enterica subsp. enterica serovar Typhimurium C77-31.
In test [10] the test system is Escherichia coli UB1005.
The subject of test [11] is Pseudomonas aeruginosa.
Test [12] deals with Escherichia coli K88.
The subject of test [13] is Acinetobacter baumannii.
For test [14], the system named is Salmonella enterica subsp. enterica serovar Pullorum C79-13.
Test [15] relates to Escherichia coli.
Test [16] concerns Candida parapsilosis CGMCC 2.3989.
The test system of test [17] is Candida tropicalis CGMCC 2.1975.
Test [18] deals with Candida albicans.
Test [19] concerns Candida albicans CGMCC 2.2086.
In test [20] the test system is Staphylococcus aureus SR1550.
Test [21] deals with Escherichia coli K-12 594.
Test [22] concerns Staphylococcus aureus ATCC 6538P.

The term MIC denotes the lowest concentration found to suppress growth. High values mean a less susceptible organism, low ones a more susceptible organism.

Molecules are shown by their SMILES. Converted amounts (≈) assume the structure as drawn.

On to `CC[C@H](C)[C@H](N)C(=O)N[C@@H](CCCCN)C(=O)N1CCC[C@H]1C(=O)N[C@H](C(=O)N[C@H](C(=O)N[C@@H](CCCCN)C(=O)N1CCC[C@H]1C(=O)N[C@H](C(=O)N[C@H](C(=O)N[C@@H](CCCCN)C(=O)N1CCC[C@H]1C(=O)N[C@H](C(=O)N[C@H](C(=O)N[C@@H](CCCCN)C(=O)N1CCC[C@H]1C(=O)N[C@H](C(=O)N[C@H](C(=O)N[C@@H](CCCCN)C(=O)N1CCC[C@H]1C(=O)N[C@H](C(=O)N[C@H](C(=O)N[C@@H](CCCCN)C(=O)N1CCC[C@H]1C(=O)N[C@H](C(N)=O)[C@@H](C)CC)[C@@H](C)CC)[C@@H](C)CC)[C@@H](C)CC)[C@@H](C)CC)[C@@H](C)CC)[C@@H](C)CC)[C@@H](C)CC)[C@@H](C)CC)[C@@H](C)CC)[C@@H](C)CC` [IKPIIKPIIKPIIKPIIKPIIKPI], for which the MIC in [1] was 16 µM (≈ 43.6 µg/mL); in test [2], at least 64 µM; in test [3], over 64 µM; in test [4] it was at least 64 µM; in test [5] it was over 64 µM; in test [6], 64 µM (≈ 175 µg/mL). For the same molecule, the minimum inhibitory concentration (MIC) in test [7] is over 64 µM; in [8], 8 µM (≈ 21.8 µg/mL); in [9] it was at least 64 µM; in test [10] it was 16 µM (≈ 43.6 µg/mL); in test [11], over 64 µM; in [12], 4 µM (≈ 10.9 µg/mL). Further, the minimal inhibitory concentration (MIC) in test [13] was 16 µM (≈ 43.6 µg/mL); in test [14], at least 64 µM; in test [15], 64 µM (≈ 175 µg/mL).
As to `CC[C@H](C)[C@H](NC(=O)CNC(=O)[C@H](CCCCN)NC(=O)[C@@H](NC(=O)[C@H](CC(C)C)NC(=O)[C@H](CC(C)C)NC(=O)[C@@H](NC(=O)[C@H](CCCCN)NC(=O)CNC(=O)[C@@H](NC(=O)[C@@H](N)CCCCN)[C@@H](C)CC)C(C)C)C(C)C)C(=O)N[C@@H](CCCCN)C(N)=O` [KIGKVLLVKGIK], the minimum inhibitory concentration (MIC) in test [16] is at least 64 µM; in test [17], at least 64 µM; in test [18], over 64 µM; in test [19], at least 64 µM.
Regarding `CC(C)C[C@H](NC(=O)[C@@H]1CCCN1C(=O)[C@H](CCCN=C(N)N)NC(=O)[C@H](CC(C)C)NC(=O)[C@H](CC(C)C)NC(=O)[C@@H]1CCCN1C(=O)[C@H](CCCN=C(N)N)NC(=O)[C@H](CC(C)C)NC(=O)[C@H](CC(C)C)NC(=O)[C@@H]1CCCN1C(=O)[C@H](CCCN=C(N)N)NC(=O)[C@H](CC(C)C)NC(=O)[C@H](CC(C)C)NC(=O)[C@@H]1CCCN1C(=O)[C@H](CCCN=C(N)N)NC(=O)[C@H](CC(C)C)NC(=O)[C@H](CC(C)C)NC(=O)[C@@H]1CCCN1C(=O)[C@H](CCCN=C(N)N)NC(=O)[C@H](CC(C)C)NC(=O)[C@H](CC(C)C)NC(=O)[C@@H]1CCCN1C(=O)[C@H](CCCN=C(N)N)NC(=O)[C@H](CC(C)C)NC(=O)[C@H](CC(C)C)NC(=O)[C@@H]1CCCN1C(=O)[C@H](CCCN=C(N)N)NC(=O)[C@@H](N)CC(C)C)C(N)=O` [LRPLLRPLLRPLLRPLLRPLLRPLLRPL], the MIC in test [1] was found to be 1 µM (≈ 3.37 µg/mL); in test [2], 2 µM (≈ 6.75 µg/mL); in [3] it was 1 µM (≈ 3.37 µg/mL); in test [4], 8 µM (≈ 27 µg/mL); in test [5] it was 1 µM (≈ 3.37 µg/mL); in test [6] it was 1 µM (≈ 3.37 µg/mL). The MIC in test [7] worked out at 2 µM (≈ 6.75 µg/mL); in [8], 1 µM (≈ 3.37 µg/mL); in [9], 2 µM (≈ 6.75 µg/mL); in test [10] it was 2 µM (≈ 6.75 µg/mL); in test [11], 2.83 µM (≈ 9.54 µg/mL); in test [12] it was 1 µM (≈ 3.37 µg/mL). Besides, the minimal inhibitory concentration (MIC) in [13], in [14] and in [15] was 1 µM (≈ 3.37 µg/mL) in each case.
On to `CC(C)[C@H](N)C(=O)N[C@@H](CCCN=C(N)N)C(=O)N1CCC[C@H]1C(=O)N[C@H](C(=O)N[C@H](C(=O)N[C@@H](CCCN=C(N)N)C(=O)N1CCC[C@H]1C(=O)N[C@H](C(=O)N[C@H](C(=O)N[C@@H](CCCN=C(N)N)C(=O)N1CCC[C@H]1C(=O)N[C@H](C(=O)N[C@H](C(=O)N[C@@H](CCCN=C(N)N)C(=O)N1CCC[C@H]1C(=O)N[C@H](C(=O)N[C@H](C(=O)N[C@@H](CCCN=C(N)N)C(=O)N1CCC[C@H]1C(=O)N[C@H](C(=O)N[C@H](C(=O)N[C@@H](CCCN=C(N)N)C(=O)N1CCC[C@H]1C(=O)N[C@H](C(=O)N[C@H](C(=O)N[C@@H](CCCN=C(N)N)C(=O)N1CCC[C@H]1C(=O)N[C@H](C(N)=O)C(C)C)C(C)C)C(C)C)C(C)C)C(C)C)C(C)C)C(C)C)C(C)C)C(C)C)C(C)C)C(C)C)C(C)C)C(C)C` [VRPVVRPVVRPVVRPVVRPVVRPVVRPV], for which the MIC in [1] was 8 µM (≈ 25.4 µg/mL); in [2], at least 64 µM; in [3], over 64 µM; in test [4], at least 64 µM; in [5], over 64 µM; in [6] it was 8 µM (≈ 25.4 µg/mL). In addition, the MIC is 32 µM (≈ 102 µg/mL) in test [7]; 16 µM (≈ 50.8 µg/mL) in test [8]; 16 µM (≈ 50.8 µg/mL) in test [9]; 8 µM (≈ 25.4 µg/mL) in test [10]; over 64 µM in [11]; 8 µM (≈ 25.4 µg/mL) in [12]. Also, the results for the minimum inhibitory concentration (MIC) in test [13], in [14] and in test [15] were 4 µM (≈ 12.7 µg/mL), 4 µM (≈ 12.7 µg/mL) and 8 µM (≈ 25.4 µg/mL), respectively.
For the molecule `CC[C@H](C)[C@H](NC(=O)[C@@H](N)CCCCN)C(=O)NCC(=O)N[C@@H](CCCCN)C(=O)N[C@H](C(=O)N[C@@H](CC(C)C)C(N)=O)C(C)C` [KIGKVL], the MIC in test [16] was at least 64 µM; in test [17], at least 64 µM; in test [18], over 64 µM; in [19], at least 64 µM.
On to `CC(C)C[C@H](NC(=O)[C@H](CC(C)C)NC(=O)[C@H](CC(C)C)NC(=O)[C@H](CC(C)C)NC(=O)[C@H](CC(C)C)NC(=O)[C@H](CCCCN)NC(=O)[C@@H](N)CCCCN)C(=O)N[C@@H](CCCCN)C(=O)N[C@@H](CCCCN)C(N)=O` [KKLLLLLKK], for which the minimum inhibitory concentration (MIC) in test [20] was 31.9 µM (≈ 35 µg/mL); in test [21], 31.9 µM (≈ 35 µg/mL); in test [22], 14.6 µM (≈ 16 µg/mL).
